Assay results: patent US20250019385A1, “SPIROCYCLIC ANNULATED 2-AMINO-3-CYANO THIOPHENES AND DERIVATIVES FOR THE TREATMENT OF CANCER” (Boehringer Ingelheim International GmbH, priority 2023, published 2025)

How the values were obtained:
[1] = target: KRAS (WT)::CRAF protein::protein interaction (Homo sapiens (Human), UniProt P01116); assay: KRAS TR-FRET assay (KRAS WT::CRAF, GTP); format: binding
Method: (§1) This assay measures the inhibitory effect of compounds on KRAS::CRAF protein::protein interactions in the presence of GTP using Time-resolved fluorescence energy transfer (TR-FRET).
(§2) The following wildtype or mutant alleles of KRAS and CRAF protein have been used at the given concentrations:
KRAS (WT) 1-169, N-terminal 6His-tag, C-terminal avi-tag (Boehringer Ingelheim in house protein prep); final assay concentration 15 nM.
(§3) CRAF Ras binding domain, GST-tag, TEV cleavage site (Boehringer Ingelheim in house protein prep); final assay concentration 15 nM.
(§4) Test compounds dissolved in DMSO were dispensed onto assay plates (Proxiplate 384 PLUS, white, PerkinElmer; 6008289) using an Access Labcyte Workstation with the Labcyte Echo 55x. For the chosen highest assay concentration of 100 μM, 150 nl of compound solution was transferred from a 10 mM DMSO compound stock solution. A series of eleven fivefold dilutions per compound was transferred to the assay plate, compound dilutions were tested in duplicates. DMSO was added as backfill to a total volume of 150 nl.
(§5) The assay runs on a fully automated robotic system. To 150 nl of compound dilution 15 μl of a mix including the respective KRAS allele, CRAF (e.g. KRAS (G12D)::CRAF; final assay concentrations see above), GTP nucleotide (Sigma G8877; final assay concentration 10 μM), Lance Eu—W1024 labeled Streptavidin (PerkinElmer, Cat No AD0063; final assay concentration 1.5 nM) and Anti-GST surelight APC (PerkinElmer, Cat No AD0059G; final assay concentration 30 nM) in assay buffer (1×PBS, 0.1% BSA, 0.05% Tween 20) are added into columns 1-23 and 15 μL of the solution without the respective KRAS allele were added to row 24.
(§6) Plates are kept at room temperature in a darkened incubator. After 60 minutes incubation time the signal is measured in a PerkinElmer Envision HTS Multilabel Reader using the TR-FRET LANCE Ultra specs from PerkinElmer.
(§7) Each plate contains 16 wells of a negative control (diluted DMSO instead of test compound; w respective KRAS allele; column 23) and 16 wells of a positive control (diluted DMSO instead of test compound; w/o respective KRAS allele; column 24).
(§8) IC50 values were calculated and analyzed with Boehringer Ingelheim's MEGALAB 50 application using a 4 parametric logistic model.
(§9) Tables of example compounds disclosed herein contain IC50 values determined using the above assays (see Table 44).

CYP3A4 = CYP3A4 (Homo sapiens (Human), UniProt P08684); assay: Mechanism based inhibition of CYP3A4 assay (MBI 3A4); format: in vitro ADME; conditions: human liver microsomes, 25 uM compound; hydroxy-midazolam formation after 30 min preincubation relative to 0 min
Sequence of CYP3A4 (P08684 whole entry): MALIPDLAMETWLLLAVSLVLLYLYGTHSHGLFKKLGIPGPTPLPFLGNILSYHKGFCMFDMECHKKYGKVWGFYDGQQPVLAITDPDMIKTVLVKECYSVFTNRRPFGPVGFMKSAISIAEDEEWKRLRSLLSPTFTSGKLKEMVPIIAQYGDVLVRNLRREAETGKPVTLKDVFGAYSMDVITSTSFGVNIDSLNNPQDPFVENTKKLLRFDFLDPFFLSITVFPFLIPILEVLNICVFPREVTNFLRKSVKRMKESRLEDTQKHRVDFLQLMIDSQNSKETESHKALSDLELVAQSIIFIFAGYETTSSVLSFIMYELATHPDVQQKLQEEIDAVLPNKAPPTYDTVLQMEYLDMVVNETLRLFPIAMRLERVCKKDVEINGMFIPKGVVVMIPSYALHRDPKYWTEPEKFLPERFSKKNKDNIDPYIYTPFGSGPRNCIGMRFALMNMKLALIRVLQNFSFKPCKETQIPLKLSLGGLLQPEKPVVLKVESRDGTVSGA
Method: The time dependent inhibition towards CYP3A4 is assayed in human liver microsomes (0.02 mg/mL) with midazolam (15 μM) as a substrate. The test compounds and water control (wells w/o test compound) are preincubated in presence of NADPH (1 mM) with human liver microsomes (0.2 mg/mL) at a concentration of 25 uM for 0 min and 30 min. After preincubation, the incubate is diluted 1:10 and the substrate midazolam is added for the main incubation (15 min). The main incubation is quenched with acetonitrile and the formation of hydroxy-midazolam is quantified via LC/MS-MS. The formation of hydroxy-midazolam from the 30 min preincubation relative to the formation from the 0 min preincubation is used as a readout. Values of less than 100% mean that the substrate midazolam is metabolized to a lower extent upon 30 min preincubation compared to 0 min preincubation. In general low effects upon 30 min preincubation are desired (corresponding to values close to 100%/not different to the values determined with water control).

[2] = Caco-2 assay (permeability and efflux ratio); format: in vitro ADME; conditions: human; for Papp A→B at 90 min, 10 μM: Caco-2 apical to basolateral permeability, pH 7.4, read-out: Caco PappAB; for efflux ratio at 90 min, 10 μM: pH 7.4, Caco-2 efflux ratio PappBA/PappAB, read-out: Caco ER
Method: The assay provides information on the potential of a compound to pass the cell membrane, on the extent of oral absorption as well as on whether the compound is actively transported by uptake and/or efflux transporters. Permeability measurements across polarized, confluent Caco-2 cell monolayers grown on permeable filter supports (Corning, catalog #3391) are used. 10 μM test compound solution in assay buffer (128.13 mM NaCl, 5.36 mM KCl, 1 mM MgSO4, 1.8 mM CaCl2), 4.17 mM NaHCO3, 1.19 mM Na2HPO4, 0.41 mM NaH2PO4, 15 mM 2-[4-(2-hydroxyethyl)piperazin-1-yl]ethanesulfonic acid (HEPES), 20 mM glucose, pH 7.4) was added to the donor compartment of the cell chamber containing a monolayer of Caco-2 cells in between the donor and the receiver compartment. The receiver and donor compartments contain 0.25% bovine serum albumine (BSA) in assay buffer. Passive diffusion and/or active transport of compounds across the monolayer is measured in both apical to basolateral (a-b) and basolateral to apical (b-a) direction. a-b permeability (PappAB) represents drug absorption from the intestine into the blood and b-a permeability (PappBA) drug secretion from the blood back into the intestine via both passive permeability as well as active transport mechanisms mediated by efflux and uptake transporters that are expressed on the Caco-2 cells. After a pre-incubation of 25-30 min at 37° C., at predefined time points (0, 30, 60 and 90 min), samples were taken from the receiver and donor compartment, respectively. Concentrations of test compounds in samples were measured by HPLC/MS/MS, samples from the donor compartment were diluted 1:50 (v:v) with assay buffer, samples from receiver compartment were measured without dilution.
Apparent permeabilities in a-b (PappAB) and b-a (PappBA) directions are calculated according to the formula:
[formula] • Vrec [mL]: buffer volume in receiver compartment • Cdon [μmol/mL]: concentration of test compound in donor compartment at t=0 • ΔCrec: difference between concentrations of test compound in receiver compartment at start and end of incubation time • Δt: Incubation time • Vrec·ΔCrec/Δt [μmol/min]: Amount of compound transferred to receiver compartment per time • A [cm^2]: filter surface
Caco-2 efflux ratios (ER) are calculated as the ratio of PappBA/PappAB.

[3] = target: KRAS (G12V)::CRAF protein::protein interaction (Homo sapiens (Human), UniProt P01116, C118S/G12V); assay: KRAS TR-FRET assay (KRAS G12V::CRAF, GTP); format: binding
Sequence of KRAS (G12V)::CRAF protein::protein interaction (P01116 other isoform, or with tags, fused parts or gaps G12V/C118S): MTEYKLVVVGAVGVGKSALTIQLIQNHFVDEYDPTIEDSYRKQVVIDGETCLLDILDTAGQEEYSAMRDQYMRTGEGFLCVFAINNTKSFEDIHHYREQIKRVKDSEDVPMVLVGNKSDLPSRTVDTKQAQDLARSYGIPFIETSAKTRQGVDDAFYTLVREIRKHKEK
Method: as §1, §2
KRAS (G12V) 1-169, C118S, N-terminal 6His-tag, C-terminal avi-tag (Boehringer Ingelheim in house protein prep); final assay concentration 15 nM.
as §3, §4, §5, §6, §7, §8, §9

[4] = target: KRAS (G12D)::CRAF protein::protein interaction (Homo sapiens (Human), UniProt P01116, G12D); assay: KRAS TR-FRET assay (KRAS G12D::CRAF, GTP); format: binding
Sequence of KRAS (G12D)::CRAF protein::protein interaction (P01116 other isoform, or with tags, fused parts or gaps G12D): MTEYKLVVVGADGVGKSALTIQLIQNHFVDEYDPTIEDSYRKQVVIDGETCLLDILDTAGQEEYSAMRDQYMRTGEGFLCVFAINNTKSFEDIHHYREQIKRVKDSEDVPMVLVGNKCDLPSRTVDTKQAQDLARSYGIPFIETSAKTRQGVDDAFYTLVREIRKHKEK
Method: as §1, §2
KRAS (G12D) 1-169, N-terminal 6His-tag, C-terminal avi-tag (Xtal BioStructures, Inc.); final assay concentration 15 nM,
as §3, §4, §5, §6, §7, §8, §9

Sequence of KRAS (WT)::CRAF protein::protein interaction (P01116 other isoform, or with tags, fused parts or gaps): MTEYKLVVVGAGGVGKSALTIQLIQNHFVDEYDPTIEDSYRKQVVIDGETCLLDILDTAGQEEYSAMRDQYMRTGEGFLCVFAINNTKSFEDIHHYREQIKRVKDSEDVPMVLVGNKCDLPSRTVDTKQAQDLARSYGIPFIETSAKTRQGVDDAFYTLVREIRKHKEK

Row | SMILES | IC50 [1] [nM] | MBI 3A4 (CYP3A4) [%] | Papp A→B at 90 min, 10 μM [2] [×10⁻⁶ cm/s] | efflux ratio at 90 min, 10 μM [2] | IC50 [3] [nM] | IC50 [4] [nM]
1 | C[C@H](Oc1nc(-c2onc3c2CCC[C@@]32CCCc3sc(N)c(C#N)c32)nc2c1n(C)c(=O)n2[C@@H]1CCOC1)C12CCCN1CCC2 [I-25] | 53 | 60 | 2.9 | 18.6 | 26 | 53
2 | C[C@H](Oc1nc(-c2onc3c2CCC[C@@]32CCCc3sc(N)c(C#N)c32)nc2c1n(C)c(=O)n2[C@@]12COC[C@@H]1C2)[C@@H]1CCCN1C [I-29] | 37 | 79 | 19 | 2.5 | 18 | 85
3 | C[C@H](Oc1nc(-c2onc3c2CCC[C@@]32CCCc3sc(N)c(C#N)c32)nc2c1n(C)c(=O)n2[C@@H]1CCOC1)[C@@H]1CCCN1C [I-20] | 50 | 92 | 11.9 | 6.2 | 21 | 46
4 | CC(C)n1c(=O)n([C@@H]2CCOC2)c2nc(-c3onc4c3CCC[C@@]43CCCc4sc(N)c(C#N)c43)nc(O[C@@H](C)[C@@H]3CCCN3C)c21 [I-32] | 605 | – | – | – | 191 | 478
5 | CO[C@H]1CCN(C)[C@@H]1[C@H](C)Oc1nc(-c2noc3c2CCC[C@@]32CCCc3sc(N)c(C#N)c32)nc2c1n(C)c(=O)n2[C@@H]1CCOC1 [II-1] | 54 | – | – | – | 61 | 41
6 | C[C@H](Oc1nc(-c2onc3c2CCC[C@@]32CCCc3sc(N)c(C#N)c32)nc2c1n(C)c(=O)n2[C@@H]1CCCOC1)[C@@H]1CCCN1C [I-12] | 37 | 75 | 25.5 | 1.7 | 22 | 62
7 | C[C@H](Oc1nc(-c2onc3c2CCC[C@@]32CCCc3sc(N)c(C#N)c32)nc2c1n(C)c(=O)n2[C@@H]1CCOC1)[C@@H]1[C@@H](F)CCN1C [I-5] | 657 | – | – | – | 266 | 449
8 | CCn1c(=O)n([C@@H]2CCOC2)c2nc(-c3onc4c3CCC[C@@]43CCCc4sc(N)c(C#N)c43)nc(O[C@@H](C)[C@@H]3CCCN3C)c21 [I-21] | 95 | – | 19 | 3.8 | 37 | 85
9 | C[C@H](Oc1nc(-c2onc3c2CCC[C@@]32CCCc3sc(N)c(C#N)c32)nc2c1cnn2[C@@H]1CCOC1)[C@@H]1CCCN1C [I-43] | 326 | – | – | – | 149 | 255
10 | C[C@H](Oc1nc(-c2onc3c2CCC[C@@]32CCCc3sc(N)c(C#N)c32)nc2c1COC[C@]21CCOC1)[C@@H]1CCCN1C [I-54] | 33 | 83 | – | – | 12 | 25
11 | C[C@H](Oc1nc(-c2noc3c2CCC[C@@]32CCCc3sc(N)c(C#N)c32)nc2c1cnn2[C@@H]1CCOC1)[C@@H]1CCCN1C [II-4] | 81 | – | – | – | 50 | 97
